According to paper PMC5173319, “Crenactin forms actin-like double helical filaments regulated by arcadin-2” (eLife, 2016):

What was measured:
crenactin [1] = target: T1, crenactin (Pyrobaculum calidifontis, UniProt A3MWN5); experiment: […] degree light scattering, polymerisation; type: biochemical; settings: 3 uM crenactin, 2 mM ATP, 4 mM MgCl2, 50 mM NH4HCO3, 50 mM NaCl, 8% PEG 8000, 25 C
T1 construct: gene cren-1; full length 1-432, N-terminal His6-SUMO tag cleaved by SENP1; E. coli C41(DE3), codon-optimised gene; double helical filament (homopolymer); model residues 5-430
T1 sequence (A3MWN5 whole entry, the tested form may be a part): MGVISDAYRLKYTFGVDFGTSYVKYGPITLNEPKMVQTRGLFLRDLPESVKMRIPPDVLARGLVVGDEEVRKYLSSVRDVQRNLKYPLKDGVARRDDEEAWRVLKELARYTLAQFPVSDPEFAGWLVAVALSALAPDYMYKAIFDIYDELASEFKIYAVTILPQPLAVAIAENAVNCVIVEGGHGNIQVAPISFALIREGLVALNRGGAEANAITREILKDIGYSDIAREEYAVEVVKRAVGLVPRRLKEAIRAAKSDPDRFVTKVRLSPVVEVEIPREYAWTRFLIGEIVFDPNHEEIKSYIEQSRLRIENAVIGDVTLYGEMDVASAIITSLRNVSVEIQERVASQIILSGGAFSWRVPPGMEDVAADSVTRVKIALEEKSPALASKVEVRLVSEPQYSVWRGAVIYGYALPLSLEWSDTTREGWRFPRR

crenactin [2] = target: T1, crenactin; experiment: cryoEM helical reconstruction, […] A; type: binding; settings: filament polymerised with 2 mM ATP and 4 mM MgCl2, 50 mM NH4HCO3, 20 mM KCl, on ice; ATPase active site

Structure (SMILES): Nc1ncnc2c1ncn2[C@@H]1O[C@H](COP(=O)(O)OP(=O)(O)OP(=O)(O)O)[C@@H](O)[C@H]1O [ATP]
- 90 degree light scattering, polymerisation (crenactin [1]): Addition of ATP to crenactin resulted in an increase of scattering

Structure (SMILES): Nc1ncnc2c1ncn2[C@@H]1O[C@H](COP(=O)(O)OP(=O)(O)O)[C@@H](O)[C@H]1O [ADP]
- cryoEM helical reconstruction, 3.8 A (crenactin [2]): The cryoEM density for the ADP nucleotide is superimposed.
